Laboratory results: article PMC10636171 (Cell Death & Disease, 2023)
pIC50: −log10 of the molar value.

Columns and labels:
MKN45 xenograft tumor = MKN45 xenograft tumor model; format: in vivo, BALB/c nude mice; settings: 8 mg/kg/d, ig
Experimental: (§1) Male BALB/c nude mice (5-week old, 18–20 g) were purchased from Beijing Vital River Laboratory Animal Technology (Beijing Vital River LaboratoryAnimal Technology Co., Ltd., Beijing,China) and allowed to acclimate for 1 week, maintained at constant room temperature and fed a standard rodent chow and water. 1 × 10^7 cells/mL cancer cells grown in logarithmic phase were harvested and resuspended in FBS-free 1640 medium. Then, 100 μL of the cell suspension was subcutaneously injected into the right flank of each mouse. When the tumour volume was reached about 600–800 mm^3, it was removed, minced into small pieces of equal volume (2 × 2 × 2 mm^3), and transplanted subcutaneously into the nude mice. When the tumour volume was reached about 200–400 mm^3, the xenograft tumour-bearing nude mice were randomly allocated to five groups (vehicle-treated, 1D228-2mgd-treated, 1D228-4mgd-treated […] Tepotinib-treated groups, with 6 or 8 mice (The number of mice were determined according to previous experience on xenograft tumor models) per group. Each group was dosed by intragastric administration (ig) for 7–14 days. Tumour volume and body weights were recorded every day after drug treatment. At the end of the observation period, the animals were euthanized by cervical dislocation and the tumour bulks were peeled off conformed to the Guide for the Care and Use of Laboratory Animals as published by the US National Institutes of Health (NIH Publication No. 85-23, revised 1996) and approved by the Institutional Ethics Review Board of Binzhou Medical University. There was no blinding was done during the animal experiment. No animals were excluded from the analysis.

ASPC1 = experiment: CCK8 antiproliferative assay; format: cell-based; settings: Homo sapiens, ASPC1, 72 h, read-out: IC50, cell proliferation
Experimental: (§2) For cytotoxicity assay, the cells grown in the logarithmic phase were seeded into 96-well plates (7 × 10^3 cells/well) for 24 h, then exposed to different concentrations (10, 5, 1, 0.1, 0.01 and 0.001 μM) of the test compounds for 72 h. After attached cells were incubated with CCK8 (Sigma, USA) for another 1–4 h. Then the absorbance at 450 nm was measured using a multifunction microplate reader (Molecular Devices, Flex Station 3), and each experiment was performed at least in triplicate.

HS746T = experiment: CCK8 antiproliferative assay; format: cell-based; settings: Homo sapiens, Hs746T, 72 h, read-out: IC50, cell proliferation
Experimental: as §2

MKN45 = experiment: CCK8 antiproliferative assay; format: cell-based; settings: Homo sapiens, MKN-45, 72 h, read-out: IC50, cell proliferation
Experimental: as §2

MHCC97H xenograft tumor = MHCC97H xenograft tumor model; format: in vivo, BALB/c nude mice; settings: Tepotinib group (dose not given), ig, calculated through tumor weight
Experimental: as §1

284 kinases = test system: 284 kinases; parameters: method as in PMID 25736998; settings: 100 nM; 284 kinases tested; cited from earlier work
[1] = Liver microsomal stability assay; format: in vitro ADME; settings: liver microsomes, pH 7.4
Experimental: The incubation system (including 0.1 M PH 7.4 phosphate buffer, NADPH generation system, UGT incubation system, 0.5 mg/mL liver microsomal protein and appropriate concentration of drug to be tested) was incubated in a water bath at 37 °C for […]. Each sample was incubated three times in parallel, and an equal volume of pre-chilled acetonitrile was added at preset reaction time points, such as 0, 5, 10, 15, 30 and 60 min. The reaction was terminated by the addition of acetonitrile. The remaining content of the prototype drug in the warm incubation solution was determined by HPLC, HPLC-MC and HPLC-MC/MC.

CN1CCC(COc2cnc(-c3cccc(Cn4nc(-c5cccc(C#N)c5)ccc4=O)c3)nc2)CC1 [Tepotinib, reference compound]
TGI (MKN45 xenograft tumor): 67.61% | pIC50 (ASPC1): 5.42 | pIC50 (HS746T): 5.44 | pIC50 (MKN45): 8.78 | Tumor growth inhibition (TGI) (MHCC97H xenograft tumor): 63.9% | Inhibition of kinases other than c-Met (284 kinases): not able to inhibit any other kinase | half-life ([1]; Sprague-Dawley, rat, SD rats liver microsome): 0.301 h | half-life ([1]; cynomolgus monkey, Macaca fascicularis liver microsome): 22.5 h | half-life ([1]; dog, Beagle liver microsome): 1.04 h | half-life ([1]; Human liver microsome): 30.5 h | half-life ([1]; mouse, CD - 1 mice liver microsome): 0.252 h
